In US20080076747A1, “Fungicidal Mixtures” (BASF AKTIENGESELLSCHAFT, priority 2004, published 2008):

Key:
Botrytis cinerea = test: Activity against the gray mold pathogen Botrytis cinerea in the microtiter test; assay type: cell-based; conditions: 1 ppm; microtiter plate, 405 nm, day 7 after inoculation
Description: For the microtiter tests, the active compounds were formulated separately as a stock solution having a concentration of 10 000 ppm in DMSO.
In the microtiter tests, the measured parameters were offset with the growth of the active-compound-free control variant and the fungus- and active-compound-free blank value, in order to determine the relative growth in % of the pathogens in the individual active compounds.
The stock solutions were mixed according to the ratio, pipetted into a microtiter plate (MTP) and diluted to the stated active compound concentration using a malt-based aqueous nutrient medium for fungi. An aqueous spore suspension of Botrytis cinerea was then added. The plates were placed in a water vapor-saturated chamber at temperatures of 18° C. Using an absorption photometer, the MTPs were measured at 405 nm on day 7 after the inoculation.

Pyrenophora teres = test: Activity against net blotch of barley caused by Pyrenophora teres, protective application; assay type: in vivo, Pyrenophora [syn. Drechslera] teres on barley; conditions: barley seedlings, rated after 6 days
Procedure: (§1) The active compounds were separately or jointly prepared as a stock solution comprising 25 mg of active compound which was made up to 10 ml using a mixture of acetone and/or DMSO and the emulsifier Uniperol® EL (wetting agent having emulsifying and dispersing action based on ethoxylated alkylphenols) in a volume ratio of solvent/emulsifier of 99 to 1. The mixture was then made up with water to 100 ml. This stock solution was diluted with the solvent/emulsifier/water mixture described to the concentration of active compounds stated below.
(§2) The visually determined percentages of infected leaf areas were converted into efficacies in % of the untreated control:
The efficacy (E) is calculated as follows using Abbot's formula: E=(1−α/β)·100 α corresponds to the fungicidal infection of the treated plants in % and β corresponds to the fungicidal infection of the untreated (control) plants in %
An efficacy of 0 means that the infection level of the treated plants corresponds to that of the untreated control plants; an efficacy of 100 means that the treated plants were not infected.
Leaves of potted barley seedlings were sprayed to runoff point with an aqueous suspension having the concentration of active compound stated below. After 5 days, the test plants were inoculated with an aqueous spore suspension of Pyrenophora [syn. Drechslera] teres, the net blotch pathogen. The test plants were then placed in a greenhouse at temperatures between 20 and 24° C. and 95 to 100% relative atmospheric humidity. After 6 days, the extent of the disease development was determined visually in % infection of the entire leaf area.

Alternaria solani = test: Activity against early blight of tomato caused by Alternaria solani; assay type: in vivo, Alternaria solani on tomato; conditions: 4 ppm; tomato cultivar Goldene Königin, sprayed 1 day before infection, rated after 5 days
Procedure: as §1, §2
The efficacy (E) is calculated as follows using Abbot's formula: E=(1−α/β)·100 α corresponds to the fungicidal infection of the treated plants in % and β corresponds to the fungicidal infection of the untreated (control) plants in % […]
Leaves of potted plants of the cultivar “Goldene Königin” were sprayed to runoff point with an aqueous suspension having the concentration of active compound stated below. […] After 5 days, the disease on the untreated but infected control plants had developed to such an extent that the infection could be determined visually in %.

| Compound | Observed activity (%) (Botrytis cinerea) | Observed activity (%) (Pyrenophora teres; 63 ppm, sprayed 5 days before inoculation) | Observed activity (%) (Alternaria solani) | Observed activity (%) (Pyrenophora teres; 16 ppm, protective) | Observed activity (%) (Pyrenophora teres; 250 ppm, protective) |
| --- | --- | --- | --- | --- | --- |
| CO/C=C(/C(=O)OC)c1ccccc1CO/N=C(C)/C=C/c1ccc(Cl)cc1 [enestroburin (I), methyl 2-{2-[3-(4-chlorophenyl)-1-methylallylideneaminooxymethyl]phenyl}-3-methoxyacrylate] | 12% | 56% | 22% | – | – |
| Cc1ccc(C(C)NC(=O)[C@@H](NC(=O)OC(C)C)C(C)C)cc1 (stereo partly drawn) [iprovalicarb (II-11), isopropyl [(1S)-2-methyl-1-(1-p-tolylethylcarbamoyl)propyl]carbamate] | – | – | 0% | – | – |
| manganese ethylenebis(dithiocarbamate) (polymer) complex zinc salt [mancozeb (II-1)] | – | – | – | 0% | 22% |
| zinc ammoniate ethylenebis(dithiocarbamate) [metiram (II-4)] | 7% | – | – | – | – |
